Test results published in US9783513B2, “STAT3 inhibitors and their anticancer use” (Ohio State Innovation Foundation, priority 2012, dated 2017).
Entries after “also recorded” stand apart in the source; their conditions may differ.

Key:
[1] = test system: human sarcoma cell lines (RD2, RH30, U2OS); assay: Cell viability (MTT) assay, different cell lines; assay type: cell-based; settings: in different cell lines
Procedure: Human sarcoma cell lines (RD2, RH30, U2OS) were seeded in 96-well plates at a density of 3,000 cells per well. The cells were incubated at 37° C. for a period of 24 hours. Different concentrations of LY-5 (0.1-10 μM), LY-3 (0.1-20 μM), and LLL12 (0.1-10 μM) prepared as a 20 mM stock solution in sterile DMSO were added in triplicate to the plates in the presence of 10% FBS. 3-(4,5-Dimethylthiazolyl)-2, 5-diphenyltetrazoliumbromide (MTT) was added to evaluate cell viability. The absorbance was read at 595 nm. IC50 values were determined using SigmaPlot 9.0 Software (Systat Software, Inc., San Jose, Calif.).
Alternatively, cells were seeded in 96-well plates in triplicate at a density of 3,000 cells per well and given 24 hours to adhere. Cells were then treated with varying concentrations of the inhibitors in the presence of 10% FBS. The cells were incubated for 72 hours at 37° C. 25 μl of MTT dye (Sigma, #M5655) was added to each sample and incubated for 3.5 hours. After this, 100 μl of N,N-dimethylformamide (Sigma, #D4551) solubilization solution was added to each well. The absorbance at 450 nm was read the following day. Half-Maximal inhibitory concentrations (IC50) were determined using Sigma Plot 9.0 software (Systat Software Inc.).

[2] = test system: 96 human protein or lipid kinases; assay: Kinase screening (KINOMESCAN), panel of 96 kinases; assay type: binding
Procedure: The potential off-target activity of a representative compound was assessed in a screen against 96 protein and lipid kinases (see FIGS. 56 and 60). The test compound, LY-5, was assessed at 1000 and 5000 nM concentration using in vitro kinase assays. The assays were carried out using standard techniques known to one skilled in the art (KINOMESCAN™, San Diego, Calif.). The data in FIG. 60 show the % inhibition for the tested concentrations of LY-5 in the panel of kinases assessed. The interaction map provides a visualization of the relationship of these inhibition data from FIG. 60 to various kinase families.

[3] = test system: phosphorylated STAT3 (Tyr705); assay: Western blot, constitutive STAT3 phosphorylation; assay type: cell-based, human
[4] = test system: STAT3 nuclear translocation; assay: Immunofluorescence assay, nuclear translocation; assay type: cell-based, human; settings: SJSA; 1 or 2.5 μM; 4 h
Procedure: Cells seeded on glass slides in 6-well plate were cultured in serum-free medium for 24 hours. After the cell density reached about 80%, cells were pretreated with LY5 (1 or 2.5 μM) for 4 hours followed by IL-6 or IFN-γ (50 ng/ml), for 30 min, and were fixed with cold methanol for 15 min. After washing in phosphate-buffered saline (PBS), the slides were blocked with 5% normal goat serum and 0.3% Triton X-100 in PBS (PBST) for 1 hour. The slides were incubated with primary antibodies (1:100) against STAT3 or P-STAT1 proteins (Cell Signaling Technology) overnight at 4° C. Then, the slides were washed with PBST and incubated with goat anti-rabbit FIFC-conjugated secondary antibody (Invitrogen, 1:200). The cells were mounted with Vectashield Hardset mounting medium with DAPI (Vector Laboratories, Burlingame, Calif., USA). Photomicrographs were captured by Leica Microsystems (Bannockburn, Ill., USA).

HUVEC spheroids = assay: 3D in vitro angiogenesis (spheroid sprouting) assay; assay type: cell-based, human; settings: 300 nM
Procedure: The Endothelial Tube Formation Assay (CBA200, Cell Biolabs Inc., San Diego, Calif., USA) was used in addition to the HUVEC proliferation assay. The ECM gel was thawed at 4° C. and mixed to homogeneity using cooled pipette tips. Cell culture plates (96-well) were bottom-coated with a thin layer of ECM gel (50 μl/well), which was left to polymerize at 37° C. for 60 min. HUVEC (2-3×10^4 cells) were stimulated with VEGF in 150 μl medium and added to each well on the solidified ECM gel. Culture medium was added to each well in the presence or absence of LY5. The plates were incubated at 37° C. for 12-18 hours and the endothelial tubes were quantified using a fluorescent microscope after staining with Calcein AM. Three microscope fields were selected at random and photographed. Tube forming ability was quantified by counting the total number of cell clusters and branches under a 4× objective and […] per well. The results are expressed as mean fold change of branching compared with the control groups. Each experiment was performed at least three times. The 3D in vitro angiogenesis assay was performed essentially as described by manufactures instructions (promo cell). […] The spheroids were photographed after 24 hours and sprout formation assessed as described.

[5] = test system: VEGF induced vessels in Matrigel plugs; assay: Vascularization of […] plugs in vivo; design: species or system mouse
Procedure: To further characterize anti-angiogenetic properties of LY5 in vivo, we performed murine […]™ plug experiments. PBS was used as a negative control, and VEGF (100 ng/mL) as a positive control. […]™ was injected subcutaneously into CB17SC scid−/− female mice, forming semi-solid plugs. Animals received treatment of LY5 (5 mg/kg) I.P. intraperitoneal (i.p.) injection immediately after the […]™ injection and daily for 7 days. On day 7, plugs were excised under anesthesia, fixed in PBS-buffered 10% formalin containing 0.25% glutaraldehyde, and were processed for H&E and Masson's Trichrome staining. Vascular identity of the infiltrating cells was established with CD34 immunostaining. The regions containing the most intense area of neovascularization (“hotspots”) were chosen for analysis. Eight hotspots were identified for each Matrigel […]™ or tumor section. The ImagePro Plus analysis system (Media Cybernetics Inc, Bethesda, Md.) was used to quantify the percentage of area occupied by the vessel-like structures in each field. The mean±SE from each group were compared. The negative control was obtained by tissue staining with secondary antibody only.

Compound: NS(=O)(=O)c1cccc2c1C(=O)C=C(Nc1cccnc1)C2=O [LY-5, 5,8-dioxo-6-(pyridin-3-ylamino)-5,8-dihydronaphthalene-1-sulfonamide]
- IC50 [1]: 500 to 1400 nM
- inhibitory binding to the active sites of 96 kinases ([2]; 1 μM drug concentration, FIG. 56): no apparent inhibitory binding
- inhibition of the panel of kinases ([2]; 1000 and 5000 nM): did not significantly inhibit; also recorded: no apparent activity
- constitutive STAT3 phosphorylation at Y705 ([3]; DAOY, UW288-1 and UW426, 0-5 μM, 2 h): decrease in STAT3 phosphorylation
- constitutive STAT3 phosphorylation ([3]; EW8, 0.5-1 μM, 8 h): decrease in STAT3 phosphorylation; also recorded: dose-dependent decrease in formation of P-STAT3
- P-STAT3 ([3]; FIG. 40, HeLa / OS-17 as printed, 0-5 μM, 2 h): decrease in STAT3 phosphorylation
- constitutive STAT3 phosphorylation at Y705 ([3]; HCT-116, 0-5 μM, 2 h, vs LLL12): inhibits constitutive STAT3 phosphorylation at Y705 and is more potent than LLL12
- P-STAT3 ([3]; OS-17, 0-5 μM, 2 h): decrease in STAT3 phosphorylation
- P-STAT3 ([3]; RD2, 0-2.5 μM, 2 h, FIG. 58): decrease in STAT3 phosphorylation
- constitutive STAT3 phosphorylation at Y705 ([3]; RH30, RD2 and EW8, 0-1 μM, 2 h): decrease in STAT3 phosphorylation
- constitutive STAT3 phosphorylation at Y705 ([3]; RH30, 0-1 μM, 2 h, FIG. 57): decrease in STAT3 phosphorylation
- STAT3 phosphorylation at Y705 and S727 ([3]; RH30, 5 μM in DMSO or ethanol, 2 h): decrease in STAT3 phosphorylation at Y705 and S727
- concentration almost completely inhibiting Tyr705 phosphorylation ([3]; RH30, 16 h): 0.5 µM
- constitutive STAT3 phosphorylation ([3]; RH30, LY-3 0.5-2.5 μM, LY-5 0.25-1 μM, 16 h): decrease in STAT3 phosphorylation; also recorded: reduced in a dose-dependent manner
- P-STAT3 ([3]; RH30 and RD2, 0-2.5 μM, 2 h): decrease in STAT3 phosphorylation
- constitutive STAT3 phosphorylation at Y705 ([3]; SW480, 0-5 μM, 2 h): decrease in STAT3 phosphorylation
- constitutive STAT3 phosphorylation at Y705 ([3]; UW288-1 and UW426, 0-1 μM, 2 h): decrease in STAT3 phosphorylation
- P-STAT3 ([3]; UW288-1 and UW426, 0-5 μM, 2 h, FIG. 38): decrease in STAT3 phosphorylation
- IFN-γ induced STAT3 nuclear translocation [4]: does not inhibit
- IL-6 induced STAT3 nuclear translocation [4]: inhibits
- VEGF induced sprouting from preformed HUVEC spheroids (HUVEC spheroids): reduce HUVEC vascular sprout length
- VEGF induced sprouting from preformed HUVEC spheroids (HUVEC spheroids; listed as LY5): impaired angiogenic sprouting
- number of CD34 positive vessels in Matrigel plugs ([5]; 5 mg/kg daily, day 7): decrease in number of vessels
- decrease of vessel formation in Matrigel plugs ([5]; 5 mg/kg dose level, VEGF plugs): 85%
